Measurements: ChEMBL document CHEMBL3727356, “Therapeutic compounds and compositions” (2014)

Tests used:
Pyruvate kinase PKLR [1] = target: Pyruvate kinase PKLR (Homo sapiens, UniProt P30613, R510Q); test: Activation of PKR R510Q mutant (unknown origin) incubated for 60 mins in presence of ADP, PEP and NADH by Spectraax microplate reader based assay
Pyruvate kinase PKLR [2] = target: Pyruvate kinase PKLR (Homo sapiens, UniProt P30613, R532W); test: Activation of PKR R532W mutant (unknown origin) incubated for 60 mins in presence of ADP, PEP and NADH by Spectraax microplate reader based assay
Pyruvate kinase PKLR [3] = target: T1, Pyruvate kinase PKLR (Homo sapiens, UniProt P30613); test: Activation of wild type PKR (unknown origin) incubated for 60 mins in presence of ADP, PEP and NADH by Spectraax microplate reader based assay
Pyruvate kinase PKLR [4] = target: T1, Pyruvate kinase PKLR; test: Activation of wild type PKR (unknown origin) by cell based assay

Measured: AC50

T1 sequence (P30613 whole entry): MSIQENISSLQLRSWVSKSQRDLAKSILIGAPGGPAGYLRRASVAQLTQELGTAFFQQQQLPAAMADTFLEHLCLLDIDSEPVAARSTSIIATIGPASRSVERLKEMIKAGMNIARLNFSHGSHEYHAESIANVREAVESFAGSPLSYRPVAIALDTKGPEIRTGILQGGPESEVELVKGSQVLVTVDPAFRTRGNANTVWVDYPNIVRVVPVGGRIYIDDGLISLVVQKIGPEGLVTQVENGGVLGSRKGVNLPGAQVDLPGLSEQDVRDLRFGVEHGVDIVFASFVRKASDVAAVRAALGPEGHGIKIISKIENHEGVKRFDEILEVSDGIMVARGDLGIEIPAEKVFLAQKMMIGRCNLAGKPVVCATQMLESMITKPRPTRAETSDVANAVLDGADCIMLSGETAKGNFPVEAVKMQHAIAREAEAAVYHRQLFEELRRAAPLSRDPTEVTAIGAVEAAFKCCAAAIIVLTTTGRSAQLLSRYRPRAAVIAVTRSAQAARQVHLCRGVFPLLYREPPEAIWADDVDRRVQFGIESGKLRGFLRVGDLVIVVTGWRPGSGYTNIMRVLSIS
Sequence of Pyruvate kinase PKLR (Homo sapiens, UniProt P30613, R532W) (P30613 whole entry R532W): as the sequence (P30613 whole entry) above, with R532W counted along it
Sequence of Pyruvate kinase PKLR (Homo sapiens, UniProt P30613, R510Q) (P30613 whole entry R510Q): as the sequence (P30613 whole entry) above, with R510Q counted along it

CC(C)CC1(O)CCN(C(=O)c2ccc(NS(=O)(=O)c3cc(F)cc4sc(N)nc34)cc2)CC1
< 100 nM: Pyruvate kinase PKLR [1] | Pyruvate kinase PKLR [2] | Pyruvate kinase PKLR [3] | Pyruvate kinase PKLR [4]

Nc1nc2c(S(=O)(=O)Nc3ccc(C(=O)N4CCC(O)(c5ccccc5Cl)CC4)cc3)cc(F)cc2s1
< 100 nM: Pyruvate kinase PKLR [1] | Pyruvate kinase PKLR [2] | Pyruvate kinase PKLR [3] | Pyruvate kinase PKLR [4]

CC(C)CC1(O)CCN(C(=O)c2ccc(NS(=O)(=O)c3cccc4c(O)ncnc34)cc2)CC1
< 100 nM: Pyruvate kinase PKLR [1] | Pyruvate kinase PKLR [2] | Pyruvate kinase PKLR [3] | Pyruvate kinase PKLR [4]

Nc1cnc2c(S(=O)(=O)Nc3ccc(C(=O)N4CCC(O)(CCCC(F)(F)F)CC4)cc3)cccc2n1
< 100 nM: Pyruvate kinase PKLR [1] | Pyruvate kinase PKLR [2] | Pyruvate kinase PKLR [3] | Pyruvate kinase PKLR [4]

CC(C)(C)CC1(O)CCN(C(=O)c2ccc(NS(=O)(=O)c3cccc4nccnc34)cc2)CC1
< 100 nM: Pyruvate kinase PKLR [1] | Pyruvate kinase PKLR [2] | Pyruvate kinase PKLR [3] | Pyruvate kinase PKLR [4]

O=C(c1ccc(NS(=O)(=O)c2cccc3c(O)ncnc23)cc1)N1CCC(O)(CCCC(F)(F)F)CC1
< 100 nM: Pyruvate kinase PKLR [1] | Pyruvate kinase PKLR [2] | Pyruvate kinase PKLR [3] | Pyruvate kinase PKLR [4]

Cc1ccccc1C1(O)CCN(C(=O)c2ccc(NS(=O)(=O)c3cccc4cccnc34)cc2)CC1
< 100 nM: Pyruvate kinase PKLR [1] | Pyruvate kinase PKLR [2] | Pyruvate kinase PKLR [3] | Pyruvate kinase PKLR [4]
